EP0994109A2, “1-(3-(1-Pyrrolidinyl)propyl)-3-ethylcarbodiimide and a solid phase coupling agent” (ELI LILLY AND COMPANY, priority 1995, dated 1997)
Counter-ions that a name gives are not always drawn.

Tested on: neuronal protein extravasation
Experiment: Protein extravasation in dura after electrical stimulation of the trigeminal ganglion
Format: in vivo, rats or guinea pigs
Conditions: dose that inhibited the extravasation by 50%, approximated from dose-response curve
Experimental: Harlan Sprague-Dawley rats (225-325 g) or guinea pigs from Charles River Laboratories (225-325 g) were anesthetized with sodium pentobarbital intraperitoneally (65 mg/kg or 45 mg/kg respectively) and placed in a stereotaxic frame (David Kopf Instruments) with the incisor bar set at -3.5 mm for rats or -4.0 mm for guinea pigs. Following a midline sagital scalp incision, two pairs of bilateral holes were drilled through the skull (6 mm posteriorly, 2.0 and 4.0 mm laterally in rats; 4 mm posteriorly and 3.2 and 5.2 mm laterally in guinea pigs, all coordinates referenced to bregma). Pairs of stainless steel stimulating electrodes (Rhodes Medical Systems, Inc.) were lowered through the holes in both hemispheres to a depth of 9 mm (rats) or 10.5 mm (guinea pigs) from dura.
The femoral vein was exposed and a dose of the test compound was injected intravenously (1 mL/kg). Approximately 7 minutes later, a 50 mg/kg dose of Evans Blue, a fluorescent dye, was also injected intravenously. The Evans Blue complexed with proteins in the blood and functioned as a marker for protein extravasation. Exactly 10 minutes post-injection of the test compound, the left trigeminal ganglion was stimulated for 3 minutes at a current intensity of 1.0 mA (5 Hz, 4 msec duration) with a Model 273 potentiostat/ galvanostat (EG&G Princeton Applied Research).
Fifteen minutes following stimulation, the animals were killed and exsanguinated with 20 mL of saline. The top of the skull was removed to facilitate the collection of the dural membranes. The membrane samples were removed from both hemispheres, rinsed with water, and spread flat on microscopic slides. Once dried, the tissues were coverslipped with a 70% glycerol/water solution.
A fluorescence microscope (Zeiss) equipped with a grating monochromator and a spectrophotometer was used to quantify the amount of Evans Blue dye in each sample. An excitation wavelength of approximately 535 nm was utilized and the emission intensity at 600 nm was determined. The microscope was equipped with a motorized stage and also interfaced with a personal computer. This facilitated the computer-controlled movement of the stage with fluorescence measurements at 25 points (500 µm steps) on each dural sample. The mean and standard deviation of the measurements was determined by the computer.
The extravasation induced by the electrical stimulation of the trigeminal ganglion was an ipsilateral effect (i.e. occurs only on the side of the dura in which the trigeminal ganglion was stimulated). This allows the other (unstimulated) half of the dura to be used as a control. The ratio of the amount of extravasation in the dura from the stimulated side compared to the unstimulated side dura was calculated. Saline controls yielded a ratio of approximately 2.0 in rats and 1.8 in guinea pigs. […]

Which “i.v. ID50” value does the source give for `CCN(CC)C1CCc2cccc(Cl)c2C1.Cl` (centres unmarked) [Compound IV, 8-chloro-2-diethylamino-1,2,3,4-tetrahydronaphthalene hydrochloride] here?
The value was 1.2e-07 mmol/kg.

`CNS(=O)(=O)Cc1ccc2[nH]cc(CCN(C)C)c2c1.O=C(O)CCC(=O)O` [Compound I, 3-[2-(dimethylamino)ethyl]-N-methyl-1H-indole-5-methanesulfonamide butane-1,4-dioate (1:1)] was tested. Which “i.v. ID50” value did it give?
Its value is 2.6e-08 mmol/kg.

`O=C(O)C(=O)O.Oc1ccc2[nH]cc(C3CCNCC3)c2c1` [Compound III, 5-hydroxy-3-(4-piperidinyl)-1H-indole oxalate] was tested. Which “i.v. ID50” value did it give?
The value was 8.9e-09 mmol/kg.

With `Cn1cc(CCN2CCC(c3c[nH]c4ccc(F)cc34)CC2)cn1` [Compound II, 5-fluoro-3-<1-<2-<1-methyl-1H-pyrazol-4-yl>ethyl>-4-piperidinyl>-1H-indole hydrochloride] as the compound, how does the “i.v. ID50” value read?
The value was 8.6e-10 mmol/kg.

With `CN(C)C1CCc2[nH]c3ccc(O)cc3c2C1` (centres unmarked) [Compound V, 6-hydroxy-3-dimethylamino-1,2,3,4-tetrahydrocarbazole] as the compound, how does the “i.v. ID50” value read?
Its value is 8.7e-09 mmol/kg.
